Experimental data from ChEMBL document CHEMBL1201862, “PubChem BioAssay data set” (2004).
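Following 48 hours of exposure in 96-well plates, responses at five concentrations were used to interpolate endpoints linearly. GI50: concentration for 50% inhibition of growth.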 Active and inactive are the calls of the source. Rule as the data show it: active = GI50 up to about 1.1 µM and inactive = higher.

Tests used:
Test in all cases: DTP human tumour cell line panel, 48 h
[1] = tested on: MCF7
[2] = tested on: PC-3
[3] = tested on: SR
[4] = tested on: NCI-H522
[5] = tested on: HOP-62
[6] = tested on: UACC-257
[7] = tested on: SK-MEL-28
[8] = tested on: MDA-MB-231
[9] = tested on: SK-MEL-5
[10] = tested on: SF-268
[11] = tested on: HCC 2998
[12] = tested on: M14
[13] = tested on: A549
[14] = tested on: IGROV-1
[15] = tested on: Hs-578T
[16] = tested on: K562
[17] = tested on: OVCAR-5
[18] = tested on: SW-620
[19] = tested on: CAKI-1

Row | Compound | GI50 [1] | GI50 [2] | GI50 [3] | GI50 [4] | GI50 [5] | GI50 [6] | GI50 [7] | GI50 [8] | GI50 [9] | GI50 [10] | GI50 [11] | GI50 [12] | GI50 [13] | GI50 [14] | GI50 [15] | GI50 [16] | GI50 [17] | GI50 [18] | GI50 [19]
1 | O=c1oc2ccccc2cc1-c1csc(Nc2cc(Cl)cc(Cl)c2)n1 | 17.4 µM (inactive) | > 100 µM (inactive) | > 20 µM (inactive) | 20.9 µM (inactive) | 3.85 µM (inactive) | > 100 µM (inactive) | 9.51 µM (inactive) | 4.66 µM (inactive) | > 56.1 µM (inactive) | 12.8 µM (inactive) | > 100 µM (inactive) | > 35.5 µM (inactive) | 4.51 µM (inactive) | 14 µM (inactive) | 12.2 µM (inactive) | > 100 µM (inactive) | > 100 µM (inactive) | 11.9 µM (inactive) | 
2 | O=P(c1ccccc1)(c1ccccc1)c1ccc2c(c1)OCCOCCOCCOCCO2 | > 100 µM (inactive) | > 100 µM (inactive) | > 100 µM (inactive) | > 100 µM (inactive) | > 100 µM (inactive) |  | > 100 µM (inactive) | > 100 µM (inactive) | > 100 µM (inactive) | > 100 µM (inactive) | > 100 µM (inactive) | > 100 µM (inactive) | > 100 µM (inactive) | > 100 µM (inactive) | > 100 µM (inactive) | > 100 µM (inactive) |  | > 100 µM (inactive) | > 100 µM (inactive)
3 | CC(C)(C)c1ccc(OC(=O)Nc2ccc(O)c(C(=O)O)c2)cc1 | > 100 µM (inactive) | > 100 µM (inactive) | > 100 µM (inactive) | > 100 µM (inactive) | > 100 µM (inactive) | > 100 µM (inactive) | > 100 µM (inactive) | > 100 µM (inactive) | > 100 µM (inactive) | > 100 µM (inactive) |  | > 100 µM (inactive) | > 100 µM (inactive) | > 100 µM (inactive) | > 100 µM (inactive) | > 100 µM (inactive) | > 100 µM (inactive) | > 100 µM (inactive) | > 100 µM (inactive)
4 | O=C(O)/C=C\C(=O)Nc1ccc2c(c1)C(=O)c1cc(F)ccc1-2 | > 100 µM (inactive) | > 100 µM (inactive) | > 100 µM (inactive) | 56.2 µM (inactive) | > 100 µM (inactive) | > 100 µM (inactive) | > 100 µM (inactive) | > 100 µM (inactive) | > 100 µM (inactive) | > 100 µM (inactive) |  | > 100 µM (inactive) | > 100 µM (inactive) | > 100 µM (inactive) | 54.3 µM (inactive) | > 100 µM (inactive) | > 100 µM (inactive) | > 100 µM (inactive) | > 100 µM (inactive)
5 | CCOC(=O)c1c(C)[n+]([O-])c2cc(Cl)c(Cl)cc2[n+]1[O-] | 32.5 µM (inactive) | 26.9 µM (inactive) | 8.02 µM (inactive) |  | 21 µM (inactive) | 16.9 µM (inactive) | 29.4 µM (inactive) | 21.1 µM (inactive) | 16.7 µM (inactive) | 24.5 µM (inactive) | 13.7 µM (inactive) | 23.1 µM (inactive) | 14.6 µM (inactive) | 7.6 µM (inactive) | 24.1 µM (inactive) | 31.4 µM (inactive) | 43.6 µM (inactive) |  | 18 µM (inactive)
6 | Cc1ccc2c(c1)Sc1ccc(/N=N/N(C)C)cc1N2C | 87.9 µM (inactive) | 71.1 µM (inactive) | 52.8 µM (inactive) | > 100 µM (inactive) | > 100 µM (inactive) |  | > 100 µM (inactive) | > 100 µM (inactive) | 96.2 µM (inactive) | > 100 µM (inactive) | > 100 µM (inactive) | > 100 µM (inactive) | > 100 µM (inactive) | > 100 µM (inactive) | > 100 µM (inactive) |  | > 100 µM (inactive) | > 100 µM (inactive) | > 100 µM (inactive)
7 | Nc1ccc(-c2nc3ccc(F)cc3s2)cc1Cl | < 0.01 µM (active) | > 100 µM (inactive) | > 100 µM (inactive) | > 70.5 µM (inactive) | 26.9 µM (inactive) | > 100 µM (inactive) | > 100 µM (inactive) | > 55.3 µM (inactive) | > 100 µM (inactive) | 35.3 µM (inactive) | 0.0869 µM (active) | > 100 µM (inactive) | > 100 µM (inactive) | < 0.01 µM (active) | 32.9 µM (inactive) | > 100 µM (inactive) |  | > 100 µM (inactive) | > 78.5 µM (inactive)
8 | CSC(SC)=C(C#N)C(=O)Nc1ccc(Cl)cc1 | 41.8 µM (inactive) | 54.2 µM (inactive) | 38.1 µM (inactive) |  |  | > 100 µM (inactive) | > 100 µM (inactive) | > 100 µM (inactive) | 51.6 µM (inactive) | 61.7 µM (inactive) | > 100 µM (inactive) | 48.4 µM (inactive) | 31.3 µM (inactive) |  | > 100 µM (inactive) | 25.9 µM (inactive) | > 100 µM (inactive) | 44.1 µM (inactive) | 22 µM (inactive)
